{"source": "patent US8835471B2", "about": "“Use of angiotensin II agonists” (Vicore Pharma AB, priority 2010, dated 2014)", "key": {"TrkB [1]": {"test_system": "TrkB", "assay": "Immunohistochemical stainings of injured spinal cords for TrkB", "format": "in vivo, mouse", "settings": "4 week treatment; area of injury and peri-lesional tissue; versus vehicle; FIG. 7", "excerpt": "Animal tissues were fixated by transcardial perfusion with normal saline followed by ice-cold 4% paraformaldehyde in 0.1 M phosphate-buffered saline. After perfusion, spinal cords were dissected and post-fixed overnight in the same fixative. The next day, the tissues were embedded in Jung-Tissue Freezing Medium (Leica Microsystems Nussloh, Germany) and cut longitudinally along the horizontal plane (40 μm thickness) into six series using a freezing microtome.\nFor immunostaining, samples were preincubated with 10% normal goat serum dissolved in PBS containing 0.5% Triton X-100 for 30 minutes at room temperature (RT). Incubation with primary antibody (Santa Cruz) was carried out overnight at 4° C. Following repeated washing steps with PBS, secondary antibodies (Jackson ImmunoResearch Laboratories) were applied for 2 hours at RT. After removal of unbound antibodies, sections were mounted.\n(§1) For measurement of signal intensity six sections per animal containing the lesion center were analyzed. Micrographs were made in 15 rectangular boxes along the spinal cord covering the lesion and surrounding area. Using ImageJ software (NIH) pictures were converted into the 8-Bit greyscale and the signal intensity for each box was evaluated."}, "TrkB [2]": {"test_system": "TrkB", "assay": "TrkB mRNA expression by RT-qPCR in murine primary astrocytes", "format": "cell-based", "settings": "primary mouse astrocytes, FIG. 6b", "description": "(§2) Total RNA from cells was extracted using NucleoSpin RNA II extraction kit including DNAse treatment to digest genomic DNA (Macherey & Nagel, Düren, Germany).\n(§3) RNA concentration was measured spectrophotometrically at a wavelength of 260 nm. Purity was assessed by the quotient 260/280 nm.\n(§4) 250 ng of cell-derived mRNA were reverse transcribed into complementary DNA using moloney murine leukaemia virus (M-MLV) reverse transcriptase, 5× M-MLV buffer, deoxy-NTPs, random primers and RNasin (reagents from Promega, Mannheim, Germany) at 37° C. for 60 min. In order to control for genomic DNA contaminations, RNA was additionally transcribed in the absence of M-MLV reverse transcriptase (RT minus control).\n(§5) To measure gene expression, the transcribed cDNA was amplified by quantitative real-time PCR (Stratagen MX Pro, Agilent Technologies Sales & Services GmbH & Co. KG, Waldbronn, Germany) in a final volume of 25 μl with the specific primers in commercial Power SYBR Green Master Mix (Applied Biosystems, Foster City, USA). Expression values were normalized against 18SrRNA expression.\n(§6) All PCR primers were purchased from Operon Biotechnologies (Köln, Germany). […]"}, "[3]": {"test_system": "Balb/C mice with spinal cord contusion lesion", "assay": "Spinal cord contusion injury, locomotor recovery scored with the Basso Mouse Scale (BMS)", "format": "in vivo", "excerpt": "In studies of spinal cord injury in mice, the recovery of the mice in the studies may be monitored and quantified using the Basso Mouse Scale (Basso D. M., et al., Journal of Neurotrauma, Volume 23, No. 5, 635-659 (2006), the entirety of which is hereby incorporated by reference). Using this method, each mouse in such studies may be awarded a score based on the criteria outlined in Table 1 and FIG. 1 of Basso et al., supra,\nSpinal cord injury and cortical spinal tract (CST) tracing were performed as described in (Boato et al. 2010). […] A gelfoam patch containing 1 μM the compound of Example 1(i) was then placed on top of the perforated dura (only in the second experiment, see Example 3), the muscles were sutured and the back skin closed with wound clips. Recovery of function after SCI was determined by scoring the locomotor hindlimb performance in the open field with the BMS, a 0-9 rating system based on the BBB scale and specifically designed for the mouse (Basso D. M., et al., Journal of Neurotrauma, Volume 23, No. 5, 635-659 (2006)). Under blind conditions, investigator evaluated the mice over a 4-min time period daily. Before surgery, animals were acclimated to the open field and to handling to prevent fear and/or stress behaviours that could bias the locomotor assessment."}, "[4]": {"test_system": "CST nerve fibres of mice with spinal cord injury", "assay": "Cortical spinal tract tracing (BDA-labelled nerve fibres) after spinal cord injury", "format": "in vivo, mouse", "settings": "FIG. 4", "description": "To anterogradely label the CST, 2 μl of biotinylated dextran amine (10% BDA) were then injected into the motor cortex. BDA-positive CST nerve fibres were visualized by 3,3′-diaminobenzidine staining and counted cranial and caudal to the lesion in serial sections and normalized to the number of labelled fibres in the dorsoventral diameter of the CST in cross sections at T4.\nThe bars in FIG. 2 represent the percentage of nerve fibres in the area between the end of the CST and the lesion centre (TE-LC) and in the area 0.1, 0.2 or 0.5 mm distal to the lesion centre (0.1, 0.2 or 0.5 mm from LC).\nThe potential for administration of the compound of Example 1(i) to mice to lead to regeneration of axonal fibres and bridging of the site of injury by reinnervation, following spinal cord injury, was examined. This involved tracking motor neurons by injection of BDA-labelled dextran into the motor cortex."}, "BDNF [5]": {"test_system": "BDNF", "assay": "BDNF mRNA expression by RT-qPCR in murine primary neurons", "format": "cell-based", "settings": "primary mouse neurons, FIG. 5a", "description": "(§7) Primary neurons were isolated from brains of E15 mouse embryos.\nas §2, §3, §4, §5, §6"}, "TrkB [6]": {"test_system": "TrkB", "assay": "TrkB mRNA expression by RT-qPCR in murine primary neurons", "format": "cell-based", "settings": "primary mouse neurons, FIG. 5b", "description": "as §7, §2, §3, §4, §5, §6"}, "BDNF [7]": {"test_system": "BDNF", "assay": "BDNF mRNA expression by RT-qPCR in murine primary astrocytes", "format": "cell-based", "settings": "primary mouse astrocytes, FIG. 6a", "description": "as §2, §3, §4, §5, §6"}, "[8]": {"test_system": "viable neurons at the site of spinal cord injury", "assay": "Histochemical stainings of injured spinal cords for Nissl (viable neurons)", "format": "in vivo, mouse", "settings": "versus vehicle-treated animals; FIG. 8", "description": "Animals were fixated as described above.\nFor staining of viable neurons the NeuroTrace® 500/525 green fluorescent Nissl stain (Invitrogen) was used. Briefly, after rehydration tissue slices were permeabilized in PBS containing 0.1% Triton X-100 for 10 minutes at room temperature. After washing NeuroTrace solution (100 fold diluted in PBS) was applied to the sections and incubated for 20 minutes at room temperature. After washing, samples were mounted for microscopy.\nas §1, with “centre” for “center”, “grayscale” for “greyscale”"}}, "data": [{"smiles": "CCCCOC(=O)NS(=O)(=O)c1sc(CC(C)C)cc1-c1ccc(Cn2ccnc2)cc1", "note": "[Example 1(i), N-Butyloxycarbonyl-3-(4-imidazol-1-ylmethylphenyl)-5-iso-butylthiophene-2-sulfonamide]", "values": [{"measurement": "TrkB immunoreactivity (signal intensity) in spinal cord", "setting": "TrkB [1]", "value": "strongly increased"}, {"measurement": "expression of TrkB", "setting": "TrkB [2]; 10^−6M", "value": "induced expression"}, {"measurement": "Basso Mouse Scale score better than vehicle treated mice", "setting": "[3]; Balb/C mice, treated once daily, versus vehicle, FIG. 1", "value": "approximately 1.5 points"}, {"measurement": "neurological deficits (Basso Mouse Score) compared to controls", "setting": "[3]; Balb/C mice, treated once daily, day 2 and 3 and from day 9 until the end of the study, FIG. 1", "value": "significantly reduced neurological deficits"}, {"measurement": "neurological outcome (BMS), difference between routes of administration", "setting": "[3]; systemically (i.p.) versus gel placed at the site of injury, FIG. 2", "value": "no statistically significant difference"}, {"measurement": "BMS subscore paw position of hindlimbs, recovery", "setting": "[3]; versus vehicle treated mice, where almost completely absent, FIG. 3", "value": "continuous recovery"}, {"measurement": "increase in BMS subscore paw position, statistical significance", "setting": "[3]; versus vehicle, FIG. 3", "value": "statistically significant from day 7 until the end of the observational period"}, {"measurement": "number of BDA-labelled axons (CST nerve fibres) compared to controls", "setting": "[4]", "value": "significantly increased"}, {"measurement": "production of mRNA encoding BDNF", "setting": "BDNF [5]", "value": "significantly increased"}, {"measurement": "production of mRNA encoding TrkB", "setting": "TrkB [6]", "value": "significantly increased"}, {"measurement": "expression of BDNF", "setting": "BDNF [7]; 10^−6M", "value": "induced expression"}, {"measurement": "Nissl positive cells (viable neurons) at the site of spinal cord injury", "setting": "[8]", "value": "significant increase"}]}, {"smiles": "Cc1cc(Cn2cnc3c2C[C@@H](C(=O)O)N(C(=O)C(c2ccccc2)c2ccccc2)C3)ccc1N(C)C", "note": "[PD123319, reference compound]", "values": [{"measurement": "effect of co-treatment with AT2R-antagonist on TrkB expression induced by the compound of Example 1(i)", "setting": "TrkB [2]; co-treatment with Example 1(i)", "value": "abrogated"}, {"measurement": "effect of AT2R-antagonist on BDNF mRNA increase induced by the compound of Example 1(i)", "setting": "BDNF [5]; combination with Example 1(i)", "value": "completely blocked"}, {"measurement": "effect of AT2R-antagonist on TrkB mRNA increase induced by the compound of Example 1(i)", "setting": "TrkB [6]; combination with Example 1(i)", "value": "completely blocked"}, {"measurement": "effect of co-treatment with AT2R-antagonist on BDNF expression induced by the compound of Example 1(i)", "setting": "BDNF [7]; co-treatment with Example 1(i)", "value": "abrogated"}]}]}
